Measurements taken from US11814444B2, “Cyclic polypeptides for PCSK9 inhibition” (Ra Pharmaceuticals, Inc., priority 2018, dated 2023).
Numbered stars: 1 amine (or outer) side, 2 acyl side, 3 side chain; on linkers, the order of the positions; unused ones are H or OH. Bridge positions count the residues as written; N and C are the ends. Square brackets hold non-standard residues; d marks the D form. Peptide text beside a SMILES is read from it. Trp(7-aza) = N[C@@H](Cc1c[nH]c2ncccc12)C(=O)O; X8 = O=C([C@H](Cc1ccc2[nH]ncc2c1)N[*:1])[*:2]; NMePhe(4-F) = CN[C@@H](Cc1ccc(F)cc1)C(=O)O; Phe(4-F) = N[C@@H](Cc1ccc(F)cc1)C(=O)O; mXylylene = c1cc(C[*:1])cc(C[*:2])c1; pXylylene = c1cc(C[*:2])ccc1C[*:1]; Ala(cPr) = N[C@@H](CC1CC1)C(=O)O; 2Pal = N[C@@H](Cc1ccccn1)C(=O)O; 3Pal = N[C@@H](Cc1cccnc1)C(=O)O; 4Pal = N[C@@H](Cc1ccncc1)C(=O)O; Tle = CC(C)(C)[C@H](N)C(=O)O; Nva = CCC[C@H](N)C(=O)O; Aib = CC(C)(N)C(=O)O; Mpa = O=C(O)CCS

Target: PCSK9 (Homo sapiens, UniProt Q8NBP7)
Sequence (Q8NBP7 153-692): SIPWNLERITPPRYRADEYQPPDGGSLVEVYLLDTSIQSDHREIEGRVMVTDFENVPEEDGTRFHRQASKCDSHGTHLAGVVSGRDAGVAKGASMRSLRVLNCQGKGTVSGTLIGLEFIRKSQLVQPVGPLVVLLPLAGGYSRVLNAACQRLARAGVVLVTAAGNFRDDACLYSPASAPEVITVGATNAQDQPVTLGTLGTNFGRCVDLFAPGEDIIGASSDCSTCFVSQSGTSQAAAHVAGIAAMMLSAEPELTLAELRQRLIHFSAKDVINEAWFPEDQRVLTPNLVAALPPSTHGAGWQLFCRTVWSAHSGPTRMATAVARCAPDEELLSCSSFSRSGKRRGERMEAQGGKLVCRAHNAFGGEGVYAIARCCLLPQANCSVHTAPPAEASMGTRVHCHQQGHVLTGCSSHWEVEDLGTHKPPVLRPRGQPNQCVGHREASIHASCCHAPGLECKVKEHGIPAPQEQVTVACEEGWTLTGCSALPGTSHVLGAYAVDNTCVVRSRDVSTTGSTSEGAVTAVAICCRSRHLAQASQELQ
Experiment: PCSK9 Alexa FRET Standard assay (displacement of AlexaFluor647 tagged cyclic peptide Reagent A)
Assay type: binding
Settings: 0.5 nM PCSK9, 20 nM AF cyclic peptide Reagent A
Protocol: A solution containing 1 nM biotinylated PCSK9+2.5 nM Lance Streptavidin Europium (Strep-Eu) was made in 50 mM HEPES pH 7.4, 0.15 M NaCl, 5 mM CaCl2), 0.01% BSA, and 0.01% Surfactant P20. A separate solution containing 40 nM of the AlexaFluor tagged cyclic peptide was made in the same buffer system. An Echo was used to transfer 0.750 ul of compound to an assay plate followed by the addition of 15 ul of PCSK9+Stept-Eu and 15 ul of AF peptide. The final assay volume was 30.750 ul containing 0.5 nM PCSK9, 1.25 nM Strep-Eu, and 20 nM AF cyclic peptide. The reaction was incubated at room temperature for at least two hours prior to fluorescence measurements using an Envision Multilabel Reader. IC50 values were determined by fitting data to a sigmoidal dose-response curve using nonlinear regression. Ki was then calculated from the IC50 and the KD of AF cyclic peptide. Counts (B-counts) of the europium-labeled PCSK9 were followed to observe if compounds were […]. A fall off of the B-counts likely indicated a false positive of inhibition. Data from this procedure was reported as “A=‘numerical value’ (nanomolar)”

| SMILES | IC50 |
| --- | --- |
| CCC[C@@H]1NC(=O)[C@H](Cc2c[nH]c3ncccc23)NC(=O)[C@H]([C@@H](C)O)NC(=O)[C@H](Cc2ccccn2)NC(=O)[C@H](Cc2ccc(O)cc2)NC(=O)[C@H](C(C)(C)C)NC(=O)CCSCc2cccc(c2)CSC[C@@H](C(N)=O)NC(=O)[C@H]([C@@H](C)O)NC(=O)[C@H](CCC)NC(=O)[C@H](Cc2ccc(O)cc2)NC(=O)[C@H](CCC(=O)O)NC1=O [Compound 114] ([Mpa][Tle]Y[2Pal]T[Trp(7-aza)][Nva]EY[Nva]TC-NH2; linker 1-12 via mXylylene) | 21 to 50 µM |
| CCC[C@H](NC(C)=O)C(=O)N[C@H]1CSCc2cccc(c2)CSC[C@@H](C(N)=O)NC(=O)[C@H]([C@@H](C)O)NC(=O)[C@H](CCC)NC(=O)[C@H](Cc2ccc(O)cc2)NC(=O)[C@H](CCC(=O)O)NC(=O)[C@H](CCC)NC(=O)[C@H](C)NC(=O)[C@H]([C@@H](C)O)NC(=O)[C@H](Cc2cnc[nH]2)NC(=O)[C@H](Cc2ccc(O)cc2)NC(=O)[C@H](C(C)(C)C)NC1=O [Compound 230] (Ac-[Nva]C[Tle]YHTA[Nva]EY[Nva]TC-NH2; linker 2-13 via mXylylene) | 50 to 100 µM |
| CC(=O)N[C@H]1CSCc2cccc(c2)CSC[C@@H](C(N)=O)NC(=O)[C@H]([C@@H](C)O)NC(=O)[C@H](C)NC(=O)[C@H](Cc2ccc(O)cc2)NC(=O)[C@H](CCC(=O)O)NC(=O)[C@H](C)NC(=O)[C@H](Cc2c[nH]c3ncccc23)NC(=O)[C@H]([C@@H](C)O)NC(=O)[C@H](Cc2c[nH]cn2)NC(=O)[C@H](Cc2ccc(O)cc2)NC(=O)[C@H](C(C)(C)C)NC1=O [Compound 242] (Ac-C[Tle]YHT[Trp(7-aza)]AEYATC-NH2; linker 1-12 via mXylylene) | 1 to 21 µM |
| CCC[C@H](NC(C)=O)C(=O)N[C@H]1CSCc2cccc(c2)CSC[C@@H](C(N)=O)NC(=O)[C@H]([C@@H](C)O)NC(=O)[C@H](CCC)NC(=O)[C@H](Cc2c[nH]c3ncccc23)NC(=O)[C@H](CCC(=O)O)NC(=O)[C@H](CCC)NC(=O)[C@H](Cc2c[nH]c3ncccc23)NC(=O)[C@H]([C@@H](C)O)NC(=O)[C@H](Cc2c[nH]cn2)NC(=O)[C@H](Cc2ccc(O)cc2)NC(=O)[C@H](C(C)(C)C)NC1=O [Compound 243] (Ac-[Nva]C[Tle]YHT[Trp(7-aza)][Nva]E[Trp(7-aza)][Nva]TC-NH2; linker 2-13 via mXylylene) | 50 to 100 µM |
| CC(=O)N[C@H]1CSCc2cccc(c2)CSC[C@H](C(N)=O)NC(=O)[C@H]([C@@H](C)O)NC(=O)[C@H](C)NC(=O)[C@H](Cc2ccc(O)cc2)NC(=O)[C@H](CCC(=O)O)NC(=O)[C@H](C)NC(=O)[C@H](Cc2c[nH]c3ncccc23)NC(=O)[C@H]([C@@H](C)O)NC(=O)[C@H](Cc2c[nH]cn2)NC(=O)[C@H](Cc2ccc(O)cc2)NC(=O)[C@H](C(C)(C)C)NC1=O [Compound 245] (Ac-C[Tle]YHT[Trp(7-aza)]AEYAT[dC]-NH2; linker 1-12 via mXylylene) | 50 to 100 µM |
| CCC[C@@H]1NC(=O)[C@H](Cc2ccc(O)cc2)NC(=O)[C@H](CCC(=O)O)NC(=O)[C@H](Cc2c[nH]c3ncccc23)NC(=O)[C@H]([C@@H](C)O)NC(=O)[C@H](Cc2c[nH]cn2)NC(=O)[C@H](Cc2ccc(O)cc2)NC(=O)[C@H](C(C)(C)C)NC(=O)CCSCc2cccc(c2)CSC[C@@H](C(N)=O)NC(=O)[C@H]([C@@H](C)O)NC1=O [Compound 248] ([Mpa][Tle]YHT[Trp(7-aza)]EY[Nva]TC-NH2; linker 1-11 via mXylylene) | 50 to 100 µM |
| CCC[C@@H]1NC(=O)[C@H](Cc2ccc(O)cc2)NC(=O)[C@H](CCC(=O)O)NC(=O)[C@H](CCC)NC(=O)[C@H]([C@@H](C)O)NC(=O)[C@H](Cc2c[nH]cn2)NC(=O)[C@H](Cc2ccc(O)cc2)NC(=O)[C@H](C(C)(C)C)NC(=O)CCSCc2ccc(cc2)CSC[C@@H](C(N)=O)NC(=O)[C@H]([C@@H](C)O)NC1=O [Compound 251] ([Mpa][Tle]YHT[Nva]EY[Nva]TC-NH2; linker 1-11 via pXylylene) | 50 to 100 µM |
| CCC[C@@H]1NC(=O)[C@H](Cc2c[nH]c3ncccc23)NC(=O)[C@H]([C@@H](C)O)NC(=O)[C@H](Cc2c[nH]cn2)NC(=O)[C@H](Cc2ccc(O)cc2)NC(=O)[C@H](C(C)(C)C)NC(=O)CCSCc2cccc(c2)CSC[C@@H](C(N)=O)NC(=O)[C@H]([C@@H](C)O)NC(=O)[C@H](CCC)NC(=O)[C@H](Cc2ccccc2)NC(=O)[C@H](CCC(=O)O)NC1=O [Compound 256] ([Mpa][Tle]YHT[Trp(7-aza)][Nva]EF[Nva]TC-NH2; linker 1-12 via mXylylene) | 1 to 21 µM |
| CCC[C@@H]1NC(=O)[C@H](Cc2c[nH]c3ncccc23)NC(=O)[C@H]([C@@H](C)O)NC(=O)[C@H](Cc2c[nH]cn2)NC(=O)[C@H](Cc2ccc(O)cc2)NC(=O)[C@H](C(C)(C)C)NC(=O)CCSCc2cccc(c2)CSC[C@@H](C(N)=O)NC(=O)[C@H]([C@@H](C)O)NC(=O)[C@H](CCC)NC(=O)[C@H](Cc2ccc3[nH]ncc3c2)NC(=O)[C@H](CCC(=O)O)NC1=O [Compound 257] ([Mpa][Tle]YHT[Trp(7-aza)][Nva]E[X8][Nva]TC-NH2; linker 1-12 via mXylylene) | 50 to 100 µM |
| CCC[C@H](NC(C)=O)C(=O)N[C@H]1CSCc2cccc(c2)CSC[C@@H](C(N)=O)NC(=O)[C@H]([C@@H](C)O)NC(=O)[C@H](CCC)NC(=O)[C@H](Cc2ccc(O)cc2)NC(=O)[C@H](C)NC(=O)[C@H](CCC)NC(=O)[C@H](Cc2c[nH]c3ncccc23)NC(=O)[C@H]([C@@H](C)O)NC(=O)[C@H](Cc2cnc[nH]2)NC(=O)[C@H](Cc2ccc(O)cc2)NC(=O)[C@H](C(C)(C)C)NC1=O [Compound 258] (Ac-[Nva]C[Tle]YHT[Trp(7-aza)][Nva]AY[Nva]TC-NH2; linker 2-13 via mXylylene) | 50 to 100 µM |
| CCC[C@@H]1NC(=O)[C@H](Cc2c[nH]c3ncccc23)NC(=O)[C@H]([C@@H](C)O)NC(=O)[C@H](Cc2c[nH]cn2)NC(=O)[C@H](Cc2ccc(O)cc2)NC(=O)[C@H](C(C)(C)C)NC(=O)CCSCc2cccc(c2)CSC[C@@H](C(N)=O)NC(=O)[C@H]([C@@H](C)O)NC(=O)[C@H](CC2CC2)NC(=O)[C@H](Cc2ccc(O)cc2)NC(=O)[C@H](CCC(=O)O)NC1=O [Compound 262] ([Mpa][Tle]YHT[Trp(7-aza)][Nva]EY[Ala(cPr)]TC-NH2; linker 1-12 via mXylylene) | 1 to 21 µM |
| CCC[C@@H]1NC(=O)[C@H](Cc2c[nH]c3ncccc23)NC(=O)[C@H]([C@@H](C)O)NC(=O)[C@H](Cc2c[nH]cn2)NC(=O)[C@H](Cc2ccc(O)cc2)NC(=O)[C@H](C(C)(C)C)NC(=O)CCSCc2cccc(c2)CSC[C@@H](C(N)=O)NC(=O)[C@H]([C@@H](C)O)NC(=O)[C@H](CCC)NC(=O)[C@H](Cc2ccc(F)cc2)NC(=O)[C@H](CCC(=O)O)NC1=O [Compound 266] ([Mpa][Tle]YHT[Trp(7-aza)][Nva]E[Phe(4-F)][Nva]TC-NH2; linker 1-12 via mXylylene) | 1 to 21 µM |
| CCC[C@@H]1NC(=O)[C@H](Cc2c[nH]c3ncccc23)NC(=O)[C@H]([C@@H](C)O)NC(=O)[C@H](Cc2c[nH]cn2)NC(=O)[C@H](Cc2ccc(O)cc2)NC(=O)[C@H](C(C)(C)C)NC(=O)CCSCc2cccc(c2)CSC[C@@H](C(N)=O)NC(=O)[C@H]([C@@H](C)O)NC(=O)[C@H](CCC)NC(=O)[C@H](Cc2ccc(F)cc2)N(C)C(=O)[C@H](CCC(=O)O)NC1=O [Compound 267] ([Mpa][Tle]YHT[Trp(7-aza)][Nva]E[NMePhe(4-F)][Nva]TC-NH2; linker 1-12 via mXylylene) | 50 to 100 µM |
| CCC[C@@H]1NC(=O)[C@H](Cc2ccc(O)cc2)NC(=O)[C@H](CCC(=O)O)NC(=O)C(C)(C)NC(=O)[C@H](Cc2c[nH]c3ncccc23)NC(=O)[C@H]([C@@H](C)O)NC(=O)[C@H](Cc2c[nH]cn2)NC(=O)[C@H](Cc2ccc(O)cc2)NC(=O)[C@H](C(C)(C)C)NC(=O)CCSCc2cccc(c2)CSC[C@@H](C(N)=O)NC(=O)[C@H]([C@@H](C)O)NC1=O [Compound 268] ([Mpa][Tle]YHT[Trp(7-aza)][Aib]EY[Nva]TC-NH2; linker 1-12 via mXylylene) | 0.1 to 1 µM |
| CCC[C@@H]1NC(=O)[C@H](Cc2ccncc2)NC(=O)[C@H]([C@@H](C)O)NC(=O)[C@H](Cc2c[nH]cn2)NC(=O)[C@H](Cc2ccc(O)cc2)NC(=O)[C@H](C(C)(C)C)NC(=O)CCSCc2cccc(c2)CSC[C@@H](C(N)=O)NC(=O)[C@H]([C@@H](C)O)NC(=O)[C@H](CCC)NC(=O)[C@H](Cc2ccc(O)cc2)NC(=O)[C@H](CCC(=O)O)NC1=O [Compound 270] ([Mpa][Tle]YHT[4Pal][Nva]EY[Nva]TC-NH2; linker 1-12 via mXylylene) | 50 to 100 µM |
| CCC[C@@H]1NC(=O)[C@H](Cc2ccccn2)NC(=O)[C@H]([C@@H](C)O)NC(=O)[C@H](Cc2c[nH]cn2)NC(=O)[C@H](Cc2ccc(O)cc2)NC(=O)[C@H](C(C)(C)C)NC(=O)CCSCc2cccc(c2)CSC[C@@H](C(N)=O)NC(=O)[C@H]([C@@H](C)O)NC(=O)[C@H](CCC)NC(=O)[C@H](Cc2ccc(O)cc2)NC(=O)[C@H](CCC(=O)O)NC1=O [Compound 271] ([Mpa][Tle]YHT[2Pal][Nva]EY[Nva]TC-NH2; linker 1-12 via mXylylene) | 50 to 100 µM |
| CCC[C@@H]1NC(=O)[C@H](Cc2cccnc2)NC(=O)[C@H]([C@@H](C)O)NC(=O)[C@H](Cc2c[nH]cn2)NC(=O)[C@H](Cc2ccc(O)cc2)NC(=O)[C@H](C(C)(C)C)NC(=O)CCSCc2cccc(c2)CSC[C@@H](C(N)=O)NC(=O)[C@H]([C@@H](C)O)NC(=O)[C@H](CCC)NC(=O)[C@H](Cc2ccc(O)cc2)NC(=O)[C@H](CCC(=O)O)NC1=O [Compound 272] ([Mpa][Tle]YHT[3Pal][Nva]EY[Nva]TC-NH2; linker 1-12 via mXylylene) | 50 to 100 µM |
